# Source: patent publication US20230098111A1, “COMPOSITIONS AND METHODS TO TREAT NEUROLOGICAL DISEASES” (University of Southern California, priority 2020, published 2023)
# “Also recorded” adds a separate entry of the source.
# What was measured:
# [1] = test system: C9ORF72 dipeptide repeat proteins; assay: DPR levels in C9ORF72-BAC mice; assay type: in vivo; conditions: ASO injected into hippocampus, 7 days (12 days in FIG. 8-10)
# Description: DRP aggregates (Poly(GR) red) accumulate in the cells (white outline) of C9-BAC mice.
# (§1) (A) Mass spectrometry analysis of Optineurin (OPTN) levels in the cerebrospinal fluide (CSF) of mice 2 hours after direct intracerebroventral injection of a vehicle control or apilimod. n=3 mice per group. The ratio of Optineurin in the CSF of apilimod:vehicle-injected mice is shown. (B) Poly(GR)+ DPR punctae in wild-type or C9ORF72 mice treated with intracerebroventricular injection of apilimod for 48 hours. Mean+/−s.e.m. Data points are individual neurons taken across 3 mice per group. One-way ANOVA. […] Unpaired t-test. (D) Pikfyve qRT-PCR of whole brain. n=3 mice per group at postnatal day 7. Unpaired t-test. (E) Gait impairment scoring in wild-type (WT) and TDP-43 homozygous mice treated with a negative control (NC) ASO or Pikfyve ASO at postnatal day 1. Mean+/−s.e.m. Unpaired t-test at each time point between the negative control and Pikfyve ASO conditions for TDP-43 mice. A score of 0 indicates no phenotype and 4 indicates the most severe phenotype. (F) Vehicle or GW4869 were delivered by intraperitoneal injection every 48 h starting from day 6 in negative control and Pikfyve ASO-treated mice. Mean+/−s.e.m. One-way ANOVA at each time point between the four conditions. *p<0.05, **p<0.01, ***p<0.001, ****p<0.0001.
# PIKFYVE inhibition rescues neurodegeneration in vivo. […] Since TARDBP overexpressing mice show motor deficits and neurodegeneration, we used TARDBP mice to test the efficacy of Pikfyve suppression.
# (§2) Determining whether PIKfyve-targeting ASOs can reverse ALS disease progression in vivo. To determine if PIKfyve-targeting ASOs can reverse ALS disease processes in vivo, can PIKfyve ASOs lower levels of C9ORF72 dipeptide repeat proteins in mice. Dipeptide repeat proteins are generated from the C9ORF72 repeat expansion by repeat-associated non-AUG-dependent translation and are neurotoxic.
# (§3) To determine if ASO-mediated Pikfyve suppression lowers C9ORF72 poly(GR) levels in mice, Pikfyve ASOs were injected into the hippocampus of adult C9ORF72-BAC mice, which harbor a C9ORF72 repeat expanded transgene and accumulate poly(GR)+ aggregates in hippocampal neurons.
# Pikfyve [2] = assay: Pikfyve qRT-PCR of whole brain after intracerebroventricular ASO; assay type: in vivo, mice; conditions: intracerebroventricular ASO injection at P0/P1, brain at P7
# Description: as §1
# (A) Gait impairment, (B) Kyphosis, and (C) Tremor scoring in wild-type (WT) and TDP-43 homozygous mice treated with a negative control (NC) ASO or Pikfyve ASO at P0. […]
# Pikfyve [3] = assay: Pikfyve expression in hippocampus after ASO injection; assay type: in vivo, mice; conditions: direct ASO injection into hippocampus, 7 days
# Text: as §2, §3
# TARDBP mice = assay: Motor deficits in TDP-43 (TARDBP) mice; assay type: in vivo
# Description: (A) Gait impairment, (B) Kyphosis, and (C) Tremor scoring in wild-type (WT) and TDP-43 homozygous mice treated with a negative control (NC) ASO or Pikfyve ASO at P0. Fore each assay, a score of 0 indicates no phenotype and 4 indicates the most severe phenotype.
# To determine if ASO-mediated PIKFYVE suppression can rescue neurodegeneration in mouse models of ALS, two mouse models—a C9ORF72 model based on adeno-associated virus (AAV)-mediated overexpression of poly(GR) and a TDP-43 mouse mode were established. Both models develop neurodegeneration, motor impairment, and paralysis. […]
# TDP-43 mutant mice = assay: TDP-43 pathology, neurodegeneration and survival in TDP-43 mice; assay type: in vivo
# Text: (A, B) Images (A) and quantification (B) of phosphorylated TDP-43 (pTDP43)+ punctae in spinal motor neurons of day 21 wild-type or TDP-43 mutant mice treated with a negative control (NC ASO) or Pikfyve ASO. Each data point represents one mouse, mean+/−s.e.m., one-way ANOVA. In (A), each arrow marks a pTDP-43+ puncta. […] (C, D) Images (C) and quantification (D) of nuclear and cytoplasmic TDP-43 intensity in spinal motor neurons of day 21 wild-type or TDP-43 mutant mice treated with a negative control (NC ASO) or Pikfyve ASO. Each data point represents one mouse, mean+/−s.e.m., one-way ANOVA. […] (E, F) Images (E) and quantification (F) of the average number of Neurotrace (Nissl)+ spinal motor neurons per ventral horn per mouse. Each data point represents one mouse, mean, one-way ANOVA. In (E), orange dotted lines outline the ventral horn area quantified and white dotted lines outline the spinal cord. (G) Survival of TDP-43 mutant mice treated with a negative control (NC ASO) or Pikfyve ASO. Log-rank test. *p<0.05, **p<0.01, ***p<0.001, ****p<0.0001.
# sporadic ALS iMNs = assay: Survival of sporadic ALS iMNs
# Description: (A) Survival of control (CTRL) and C9ORF72 ALS/FTD patient (C9-ALS) iMNs with a 12-hour pulse treatment of excess glutamate shown for each individual line separately. iMNs quantified from 3 independent iMN conversions per line. (B-D) Immunofluorescence analysis of total TDP-43 (B) and quantification of the ratio of nuclear to cytoplasmic TDP-43 in control, C9-ALS (C), or sporadic ALS (D) iMNs. MNs from 2 controls and 2 C9-ALS patients (C) or 4 sporadic ALS patients (D) were quantified. n=30 (controls), 30 (C9-ALS/FTD), or 36 (sporadic) iMNs per line per condition from 2 biologically independent iMN conversions of 2 control, 2 C9-ALS/FTD, or 4 sporadic ALS lines were quantified. Each gray circle represents a single iMN. Median±interquartile range. Unpaired Mann-Whitney test. Scale bars: 5 μm. Dotted lines outline the nucleus and cell body. (E) Survival of control and sporadic iMNs with glutamate treatment. iMNs quantified from 3 independent iMN conversions per line. For iMN survival experiments, significance was measured by 2-sided log-rank test using the entire survival time course.
# (B) Survival of C9-ALS/FTD iMNs with DMSO or apilimod. (C) Survival of sporadic ALS induced motor neurons (iMNs) with DMSO or apilimod. (D) Survival of C9-ALS/FTD iMNs with a scrambled ASO or PIKFYVE ASOs, 100 iMNs per group. […] Unpaired t-test. iMN survival experiments analyzed by log-rank test. […]
# C9ORF72 FTD iNs = assay: Survival of C9ORF72 FTD iNs; assay type: cell-based, human; conditions: Apilimod+GW4869 (exocytosis blocker)
# Text: (A) Survival of C9ORF72 iNs with DMSO or apilimod. Log-rank test, 100 iNs per group. […] Log-rank test, 100 iNs per group. […] Mean+/−s.e.m. Kruskal-Wallis Test.
# (A, B) Survival of C9-FTD iNs treated with DMSO and Apilimod (A) or Apilimod+GW4869 (exocytosis blocker) (B). Log-rank test. 100 iNs per group. iNs quantified from 3 independent replicates per group.
# Mutations in MAPT cause FTD with tau aggregates. To determine if iNs from FTD patients display neurodegenerative phenotypes, an established method to generate cortical neurons from iPSCs by forced expression of NGN2 was used. 3 FTD patient iPSC lines harboring a MAPTV337M mutation and their CRISPR-edited isogenic controls from a published cell bank were utilized. Neurons from MAPT-mutant iPSCs display increased phosphorylated and oligomeric tau, similar to post-mortem patient tissue (FIG. 18A). […] Thus, MAPT iNs display key features of FTD with tau pathology.
# Thus, C9ORF72 iNs provide a robust model of FTD.
# (§4) PIKFYVE inhibition rescues neurodegeneration through secretory autophagy.
# C9-FTD iNs = assay: Exosome secretion from iNs; assay type: cell-based, human; conditions: apilimod+GW4869
# Text: (A) […] of exosomes from apilimod-treated C9-FTD iNs. (B) Western blot of TSG101, TDP-43, and Neurofilament heavy chain levels in the exosome fraction secreted from control or C9-FTD iNs upon apilimod treatment. (C,D) Quantification of the exosome marker TSG101 (C) or TDP-43 (D) in the exosome fraction of control and C9-FTD iNs treated with DMSO, apilimod, or apilimod+GW4869. Kruskal-Wallis test for B, C. N=3 biological replicates per condition, one line per genotype. (E) Number of poly(GR)-GFP+ exosomes secreted from iNs expressing exogenous poly(GR)-GFP upon DMSO or apilimod treatment. N=4 biological replicates. Exosomes were labeled with CFSE-red dye to enable detection by FACS. Unpaired t-test.
# To test this, exosome release from iNs upon PIKFYVE inhibition was examined. […] Thus, PIKFYVE inhibition induces the secretion of TDP-43 and C9ORF72 DPRs from iNs
# as §4
# C9-ALS/FTD iMNs = assay: Exosome secretion from iMNs; assay type: cell-based, human; conditions: apilimod+GW4869
# Text: (A) Western blot of TSG101, TDP-43, and Neurofilament heavy chain levels in the exosome fraction secreted from control or C9-ALS/FTD iMNs upon apilimod treatment. […] Kruskal-Wallis test for B, C. N=3 biological replicates per condition, one line per genotype. (D) Number of poly(GR)-GFP+ exosomes secreted from iMNs expressing exogenous poly(GR)-GFP upon DMSO or apilimod treatment. N=4 biological replicates. Exosomes were labeled with CFSE-red dye to enable detection by FACS. Unpaired t-test.
# Blocking PIKFYVE activity induces secretory autophagy. […] Thus, secretory autophagy maintains proteostasis and prevents neuronal death in TDP-43 mouse models. PIKFYVE inhibition blocks autophagosome-lysosome fusion by […] their ratio in endosomal, lysosomal and autophagosomal membranes. One might expect this to be detrimental to ALS iMNs, which can degenerate due to misfolded protein accumulation. However, inhibition of autophagosome-lysosome fusion using PIKFYVE inhibition or bafilomycin can activate secretory autophagy to jettison misfolded proteins from cells. […] To test this hypothesis, exosomal release in human iMNs upon PIKFYVE inhibition was examined. […] Thus, PIKFYVE inhibition induces the secretion of TDP-43 and C9ORF72 DPRs from iMNs.
# Determining if PIKFYVE suppression rescues neurodegeneration through secretory autophagy. […] ASOs were designed targeting […]. It was confirmed that the ASOs suppressed RAB27A expression in iMNs.
# [4] = target: T1, Neutral Sphingomyelinase 2 (Mus musculus, UniProt Q9JJY3); conditions: mice overexpressing TDP-43; cited from earlier work
# T1 construct: In mice overexpressing TDP-43, neurons secrete exosomes containing phospho-TDP-43; host or cells: neurons of TDP-43-overexpressing mice (endogenous enzyme, in vivo)
# T1 sequence (Q9JJY3 1-655): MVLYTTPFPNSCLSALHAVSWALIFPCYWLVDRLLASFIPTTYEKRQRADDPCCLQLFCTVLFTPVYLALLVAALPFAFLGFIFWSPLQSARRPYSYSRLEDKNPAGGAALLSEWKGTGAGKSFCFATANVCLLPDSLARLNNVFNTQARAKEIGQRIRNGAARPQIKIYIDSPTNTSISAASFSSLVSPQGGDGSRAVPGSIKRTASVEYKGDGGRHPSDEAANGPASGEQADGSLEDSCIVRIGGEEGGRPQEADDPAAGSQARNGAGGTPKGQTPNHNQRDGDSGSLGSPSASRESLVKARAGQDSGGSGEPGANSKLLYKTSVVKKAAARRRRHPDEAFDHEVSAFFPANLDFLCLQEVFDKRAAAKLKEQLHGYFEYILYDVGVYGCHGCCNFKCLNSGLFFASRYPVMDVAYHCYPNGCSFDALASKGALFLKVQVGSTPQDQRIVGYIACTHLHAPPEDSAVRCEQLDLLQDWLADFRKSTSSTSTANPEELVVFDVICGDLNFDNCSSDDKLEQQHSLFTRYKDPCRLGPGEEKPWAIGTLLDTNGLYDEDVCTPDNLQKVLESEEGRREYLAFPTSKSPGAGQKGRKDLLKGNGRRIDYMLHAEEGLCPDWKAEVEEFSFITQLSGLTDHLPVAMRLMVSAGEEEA
compound,measurement,setting,value
"GGTGCATGCTCGGAGGTCTC (chemistry not given here) [Pikfyve ASO, mouse Pikfyve ASO gapmer for in vivo experiments, 5-10-5 2′-MOE, phosphorothioate]",DPR / poly(GR)+ aggregates in hippocampus of C9ORF72-BAC mice,[1],significantly reduced; also recorded: significantly less DRP aggregates
same,DPR / poly(GR)+ aggregates in hippocampus of C9ORF72-BAC mice,[1]; listed as PIKfyve ASO,significantly lowered
same,DPR / poly(GR)+ aggregates in hippocampus of C9ORF72-BAC mice,[1]; listed as Pikfyve-suppressing ASO,also lowered DPRs
same,Pikfyve mRNA levels (whole brain qRT-PCR),Pikfyve [2],reduced Pikfyve mRNA levels
same,Pikfyve mRNA levels (whole brain qRT-PCR),Pikfyve [2]; listed as Pikfyve-targeting ASO,significantly decreased Pikfyve expression
same,Pikfyve expression in hippocampus,Pikfyve [3],significantly reduced
same,Pikfyve expression in hippocampus,Pikfyve [3]; listed as PIKfyve ASO,significantly lowered
same,motor deficits in TARDBP mice,TARDBP mice; intracerebroventricular injection of Pikfyve ASO,rescued motor deficits
same,survival of TDP-43 mutant mice,TDP-43 mutant mice; NC ASO vs Pikfyve ASO,rescues
same,neurodegeneration in TDP-43 mice,TDP-43 mutant mice; Nissl+ spinal motor neurons per ventral horn,rescues
same,TDP-43 pathology in TDP-43 mice,"TDP-43 mutant mice; spinal motor neurons, day 21, NC ASO vs Pikfyve ASO",rescues
Nc1ccc(C(=O)Nc2cccc(-c3nc(N4CCOCC4)c4oc5ncccc5c4n3)c2)cn1 [YM201636],sporadic ALS iMN survival,sporadic ALS iMNs,rescued C9ORF72 and sporadic ALS
O=C(/C=C/c1ccc(/C=C/C(=O)Nc2ccc(C3=NCCN3)cc2)cc1)Nc1ccc(C2=NCCN2)cc1 [GW4869],apilimod rescue of C9ORF72 iN survival in presence of GW4869,C9ORF72 FTD iNs,blocked apilimod's ability to rescue
same,apilimod-induced release of exosomes from C9ORF72 iNs with GW4869,C9-FTD iNs,impaired apilimod-induced release of exosomes
same,motor rescue by PIKFYVE ASOs in presence of GW4869,TARDBP mice; GW4869 intraperitoneal every 48 h from day 6,blocked motor rescue by PIKFYVE ASOs
same,apilimod-induced release of exosomes containing TSG101 and TDP-43 from ALS iMNs with GW4869,C9-ALS/FTD iMNs,blocked apilimod-induced release of exosomes
same,TDP-43 mouse survival,[4],decreased TDP-43 mouse survival
same,neurodegeneration,[4],accelerated neurodegeneration
same,neuronal cytoplasmic TDP-43 aggregates,[4],increased neuronal accumulation of cytoplasmic TDP-43 aggregates
